Laboratory results from PMC6508677, “Identification of druggable small molecule antagonists of the Plasmodium falciparum hexose transporter PfHT and assessment of ligand access to the glucose permeation pathway via FLAG-mediated protein engineering” (PLoS ONE, 2019).

Biological target: T1, hGLUT5 (Homo sapiens, UniProt P22732)
T1 construct: expressed in transfected cells; host or cells: HEK293 (HEK293-FLIP); native hGLUT1 not knocked down in this line
T1 sequence (P22732 1-501): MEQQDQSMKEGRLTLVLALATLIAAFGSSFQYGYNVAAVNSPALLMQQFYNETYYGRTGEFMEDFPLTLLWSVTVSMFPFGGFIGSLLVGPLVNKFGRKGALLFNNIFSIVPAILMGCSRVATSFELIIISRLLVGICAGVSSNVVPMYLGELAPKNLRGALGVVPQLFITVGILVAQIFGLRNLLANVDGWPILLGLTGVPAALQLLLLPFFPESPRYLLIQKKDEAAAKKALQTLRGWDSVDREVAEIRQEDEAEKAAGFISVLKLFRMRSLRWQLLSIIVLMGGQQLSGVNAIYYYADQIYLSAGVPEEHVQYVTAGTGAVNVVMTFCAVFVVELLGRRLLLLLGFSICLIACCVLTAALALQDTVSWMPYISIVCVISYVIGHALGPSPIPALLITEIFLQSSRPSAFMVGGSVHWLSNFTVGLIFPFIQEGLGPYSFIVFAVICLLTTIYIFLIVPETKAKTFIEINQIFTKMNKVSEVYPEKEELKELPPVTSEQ
Test: [3H]-D-fructose uptake by HEK293 cells overexpressing GLUT5
Type: cell-based
Excerpt: Generation of HEK293 cells overexpressing PfHT and human GLUTs 1–4 were described elsewhere. Briefly, HEK293 cells were transfected with pcDNA3.1 FLII12Pglu-7006 (Addgene), containing the fluorescence resonance energy transfer (FRET) glucose sensor (HEK293-FLIP) and PfHT, human GLUT1 (hGLUT1), hGLUT2, hGLUT3, hGLUT4, hGLUT5 or hGLUT8 using Optifect (Life Technologies) according to manufacturer’s specifications. To increase retention of GLUT8 at the plasma membrane, the dileucine sorting signal E^7E^8XXXLL was modified to R^7R^8XXXLL as described in [17]. Stable transfectants were selected for G418 and hygromycin resistance to select for FRET sensor and hexose transporter, respectively. HEK293-FLIP cells were also used to generate cells stably transfected with FLAG-tagged PfHT (FTPfHT). FLAG tag ([…]) followed by a triple glycine linker and a tobacco etch virus (TEV) protease site (ENLYFQS) followed by a triple glycine linker was added to the N-terminus of PfHT via PCR [18] using Phusion Hot Start II High-Fidelity DNA Polymerase (Fisher Scientific). Single clones were selected by comparing their abilities to transport glucose as assayed via FRET and radiolabeled hexose uptake. In all cell lines, except for HEK293 cells overexpressing hGLUT1 and hGLUT5, native hGLUT1 was knocked down using shRNA as described elsewhere. Transcript levels of the individual GLUTs expressed in each cell line are as described in [13, 15] and in S1 Fig.
Glucose uptake by P. falciparum was performed essentially as described. P. falciparum strain 3D7 was cultured in 100 mm tissue culture dishes (Techno Plastic Products) in a 2% suspension of human erythrocytes and RPMI 1640 medium until reaching > 7.5% parasitemia. Cells were pelleted via centrifugation and resuspended in RPMI 1640 medium. To determine the uptake of radiolabeled glucose into the parasite, parasites were isolated from infected erythrocytes by permeablization with saponin (0.05 w/v), followed by centrifugation, aspiration of supernatant and washing of the pellet 3X with saline solution (135 mM NaCl, 2 mM KCl, 25 mM HEPES, 0.2 mM glucose and 1 mM MgCl2; pH 7.1) to remove cellular debris. WU-1 or DMSO vehicle were added to 100 μl parasites (resuspended in saline) 5 min prior to the addition of 100 μl [^14C]2-DOG (0.2- μCi/ml final concentration). 2-DG uptake was stopped after 2 min by layering the entire reaction over 300 μl of an oil mixture (5:4 mix of dibutyl phthalate / dinonyl phthalate) in Eppendorf tubes and centrifuged at 15,850 × g for 2 mins. The ratio of the estimated intracellular concentration of radiolabel relative to the extracellular concentration were calculated as described. Uptake of radiolabeled hexose into HEK293 cells was measured in glucose-free HBSS as described previously. Briefly, cells were plated at 400,000 cells/well overnight at 37°C in 24-well plates pre-treated with PEI. After 30-min incubation at 37°C in glucose-free HBSS in the presence of vehicle or increasing concentrations of compound, 2-DG uptake was measured in glucose-free HBSS for 4 min at 37°C. Cultures were washed in ice-cold 1X PBS and lysed in 0.1% Triton X-100 in 1X PBS. Radiolabeled hexose uptake was determined by liquid scintillation counting (Ultima Gold, Thermo Fisher) and normalized to total protein per well. Uptake data are plotted as percent uptake relative to vehicle-treated cells. Kinetic analyses were performed using the indicated concentrations of substrate and WU-1, with quenching of uptake after 1 min incubation. Incubation times had been previously determined as being in the linear range of time-dependent radiolabeled hexose uptake (2 min for 2-DG uptake into freed parasites; 2 and 4 min for D-Frc and 2-DG uptake HEK cell lines, respectively). Data were fit by least squares nonlinear regression analysis using GraphPad Prism 6.0 software.

In the case of `Cc1ccc(S(=O)(=O)CCNC(=O)c2c(-c3c(Cl)cccc3Cl)noc2C)cc1` [WU-1, 3-(2,6-dichlorophenyl)-5-methyl-N-[2-(4-methylbenzenesulfonyl)ethyl]-1,2-oxazole-4-carboxamide], the “IC50 (µM)” value (GLUT5, D-frc Uptake) is reported as “ambiguous”, the “IC50, D-fructose (Frc) uptake” value (GLUT5 cell line) is reported as “n.i” and the remaining activity at 0.001 µM (HEK293, 2 min, GLUT5, concentration 0.001 µM, read-out: D-frc Uptake AVE) is reported as 100%. The remaining activity at 0.3125 µM (HEK293, 2 min, GLUT5, concentration 0.3125 µM, read-out: D-frc Uptake AVE) was 78.1%, the remaining activity at 0.625 µM (HEK293, 2 min, GLUT5, concentration 0.6250 µM, read-out: D-frc Uptake AVE) was 82.9% and the remaining activity at 1.25 µM (HEK293, 2 min, GLUT5, concentration 1.2500 µM, read-out: D-frc Uptake AVE) was 96.7%. For the same compound, the remaining activity at 2.5 µM (HEK293, 2 min, GLUT5, concentration 2.5000 µM, read-out: D-frc Uptake AVE) was 102%, the remaining activity at 5 µM (HEK293, 2 min, GLUT5, concentration 5 µM, read-out: D-frc Uptake AVE) was 89.8% and the remaining activity at 10 µM (HEK293, 2 min, GLUT5, concentration 10 µM, read-out: D-frc Uptake AVE) was 87.6%. The remaining activity at 20 µM (HEK293, 2 min, GLUT5, concentration 20 µM, read-out: D-frc Uptake AVE) was 103%, the remaining activity at 40 µM (HEK293, 2 min, GLUT5, concentration 40 µM, read-out: D-frc Uptake AVE) was 108% and the remaining activity at 80 µM (HEK293, 2 min, GLUT5, concentration 80 µM, read-out: D-frc Uptake AVE) was 110%. For the same compound, the remaining activity at 160 µM (HEK293, 2 min, GLUT5, concentration 160 µM, read-out: D-frc Uptake AVE) was 111%, the remaining activity at 225 µM (HEK293, 2 min, GLUT5, concentration 225 µM, read-out: D-frc Uptake AVE) was 125% and the “Selectivity Index (PfHT over GLUT5), Frc” value (calculated from IC50s) was “n.i”.
